The record followed here is patent US7799809B2, “Carboxamide compounds and their use as calpain inhibitors” (Abbott GmbH & Co. KG, priority 2006, dated 2010).

Format in all cases: biochemical
For one test, the target named is T1, cathepsin S (Homo sapiens, UniProt P25774).
T1 construct: purchased Calbiochem 219343; host or cells: E. coli
In words: Cathepsin S enzyme inhibition in vitro (kinetic fluorescence assay). Particulars: recombinant human cathepsin S vs calpain I. The procedure, abridged: (§1)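 Cathepsin B (0.25 nM, human liver) with 100 μM Z-Phe-Arg-AMC; L (1 nM, human liver) with 2 μM Z-Phe-Arg-AMC; S (0.5 nM, recombinant) with 20 μM Z-Val-Val-Arg-AMC. pH 6.0 MES buffer, 2.5 mM L-cysteine, room temperature. Kinetic fluorescence (ex 390/em 460 nm); apparent Ki from IC50 by Cheng-Prusoff.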

For a further test, the target named is T2, cathepsin B (Homo sapiens, UniProt P07858).
T2 construct: cathepsin B—isolated from human liver (Calbiochem #219362); purchased Calbiochem 219362; host or cells: human liver (tissue-derived)
Kind of test: Cathepsin B enzyme inhibition in vitro (kinetic fluorescence assay). Particulars: cathepsin B isolated from human liver vs calpain I. The procedure, abridged:
as §1

The target of another test is T3, cathepsin K (Homo sapiens, UniProt P43235).
T3 construct: purchased Calbiochem 342001; host or cells: E. coli
T3 sequence (P43235 115-329): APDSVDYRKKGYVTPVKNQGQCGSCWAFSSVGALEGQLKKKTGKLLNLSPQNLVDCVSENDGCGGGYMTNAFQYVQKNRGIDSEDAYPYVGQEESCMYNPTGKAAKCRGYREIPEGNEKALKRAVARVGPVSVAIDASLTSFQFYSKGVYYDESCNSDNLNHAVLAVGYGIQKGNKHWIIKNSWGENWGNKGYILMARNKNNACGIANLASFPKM
In words: Cathepsin K enzyme inhibition in vitro (kinetic fluorescence assay). To be noted: cathepsin K activated from recombinant human procathepsin K vs calpain I.

The next test concerns the target T4, cathepsin L (Homo sapiens, UniProt P07711).
T4 construct: cathepsin L—isolated from human liver (Calbiochem #219402); purchased Calbiochem 219402; host or cells: human liver (tissue-derived)
Kind of test: Cathepsin L enzyme inhibition in vitro (kinetic fluorescence assay). Particulars: cathepsin L isolated from human liver vs calpain I. The procedure, abridged:
as §1

T4 sequence (P07711 114-333): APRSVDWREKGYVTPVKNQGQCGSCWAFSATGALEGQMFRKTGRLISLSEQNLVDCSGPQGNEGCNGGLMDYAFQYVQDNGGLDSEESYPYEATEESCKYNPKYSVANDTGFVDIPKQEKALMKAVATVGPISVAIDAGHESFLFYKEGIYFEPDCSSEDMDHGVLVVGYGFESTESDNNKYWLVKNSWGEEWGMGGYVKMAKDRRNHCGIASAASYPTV
T1 sequence (P25774 115-331): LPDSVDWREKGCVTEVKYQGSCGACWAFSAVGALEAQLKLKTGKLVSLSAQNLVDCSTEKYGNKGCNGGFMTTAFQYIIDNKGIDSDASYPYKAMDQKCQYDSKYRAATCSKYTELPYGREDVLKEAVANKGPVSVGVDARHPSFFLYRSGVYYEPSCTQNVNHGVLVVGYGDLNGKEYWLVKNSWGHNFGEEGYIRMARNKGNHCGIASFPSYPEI

For the compound `NC(=O)C(=O)C(Cc1ccccc1)NC(=O)c1cccnc1-n1ccc(-c2ccc(N3CCOCC3)cc2F)n1` (stereo not shown) [Example 102, N-[3-Amino-2,3-dioxo-1-(phenylmethyl)propyl]-2-[3-(2-fluoro-4-morpholin-4-ylphenyl)-1H-pyrazol-1-yl]pyridine-3-carboxamide], the “Sel cat. S: Ki(cathepsin S)/Ki(calpain) ratio” value at cathepsin S is “++ (++ means a Ki(cathepsin S)/Ki(calpain) ratio of ≧100)”. In addition, the “Sel cat. B: Ki(cathepsin B)/Ki(calpain) ratio” value at cathepsin B is on record as “+ (+ means 10≦Ki(cathepsin B)/Ki(calpain)<30)”. In addition, at cathepsin K, the “Sel cat. K: Ki(cathepsin K)/Ki(calpain) ratio” value is “++ (++ means a Ki(cathepsin K)/Ki(calpain) ratio of ≧30)”. In addition, the “Sel cat. L: Ki(cathepsin L)/Ki(calpain) ratio” value on cathepsin L is “++ (++ means a Ki(cathepsin L)/Ki(calpain) ratio of ≧50)”.

Turning to “N-(3-Amino-1-{[4-(methyloxy)phenyl]methyl}-2,3-dioxopropyl)-2-{3-[3-(trifluoromethyl)phenyl]-1H-pyrazol-1-yl}pyridine-3-carboxamide [Example 126]”, the “Sel cat. S: Ki(cathepsin S)/Ki(calpain) ratio” value on cathepsin S is “++ (++ means a Ki(cathepsin S)/Ki(calpain) ratio of ≧100)”. On cathepsin B, the “Sel cat. B: Ki(cathepsin B)/Ki(calpain) ratio” value is “++ (++ means a Ki(cathepsin B)/Ki(calpain) ratio of ≧30)”. For the same compound, the “Sel cat. K: Ki(cathepsin K)/Ki(calpain) ratio” value on cathepsin K is on record as “++ (++ means a Ki(cathepsin K)/Ki(calpain) ratio of ≧30)”. For the same compound, the “Sel cat. L: Ki(cathepsin L)/Ki(calpain) ratio” value at cathepsin L is reported as “++ (++ means a Ki(cathepsin L)/Ki(calpain) ratio of ≧50)”.

`COc1ccc(CC(NC(=O)c2cccnc2-n2ccc(-c3cccc(F)c3Cl)n2)C(=O)C(N)=O)cc1` (stereo not shown) [Example 157, N-(3-Amino-1-{[4-(methyloxy)phenyl]methyl}-2,3-dioxopropyl)-2-[3-(2-chloro-3-fluorophenyl)-1H-pyrazol-1-yl]pyridine-3-carboxamide]: the “Sel cat. S: Ki(cathepsin S)/Ki(calpain) ratio” value at cathepsin S is recorded as “++ (++ means a Ki(cathepsin S)/Ki(calpain) ratio of ≧100)”. On cathepsin B, the “Sel cat. B: Ki(cathepsin B)/Ki(calpain) ratio” value is listed as “++ (++ means a Ki(cathepsin B)/Ki(calpain) ratio of ≧30)”. Moreover, the “Sel cat. K: Ki(cathepsin K)/Ki(calpain) ratio” value on cathepsin K is “++ (++ means a Ki(cathepsin K)/Ki(calpain) ratio of ≧30)”. Besides, the “Sel cat. L: Ki(cathepsin L)/Ki(calpain) ratio” value at cathepsin L was “++ (++ means a Ki(cathepsin L)/Ki(calpain) ratio of ≧50)”.

In the case of `COc1ccc(CC(NC(=O)c2cccnc2-n2ccc(-c3ccc(F)cc3)n2)C(=O)C(N)=O)cc1` (stereo not shown) [Example 81, N-[3-Amino-1-(4-methoxybenzyl)-2,3-dioxopropyl]-2-[3-(4-fluorophenyl)-1H-pyrazol-1-yl]nicotinamide], on cathepsin S, the “Sel cat. S: Ki(cathepsin S)/Ki(calpain) ratio” value is listed as “++ (++ means a Ki(cathepsin S)/Ki(calpain) ratio of ≧100)”. Besides, at cathepsin B, the “Sel cat. B: Ki(cathepsin B)/Ki(calpain) ratio” value is recorded as “+ (+ means 10≦Ki(cathepsin B)/Ki(calpain)<30)”. Besides, at cathepsin K, the “Sel cat. K: Ki(cathepsin K)/Ki(calpain) ratio” value is “+ (+ means 10≦Ki(cathepsin K)/Ki(calpain)<30)”. Also, on cathepsin L, the “Sel cat. L: Ki(cathepsin L)/Ki(calpain) ratio” value is “++ (++ means a Ki(cathepsin L)/Ki(calpain) ratio of ≧50)”.

Consider `NC(=O)C(=O)C(Cc1ccccc1)NC(=O)c1cccnc1-n1ccc(-c2cccc(OCc3ccccc3)c2)n1` (stereo not shown) [Example 96, N-[3-Amino-2,3-dioxo-1-(phenylmethyl)propyl]-2-(3-{3-[(phenylmethyl)oxy]phenyl}-1H-pyrazol-1-yl)pyridine-3-carboxamide], for which the “Sel cat. S: Ki(cathepsin S)/Ki(calpain) ratio” value on cathepsin S is given as “++ (++ means a Ki(cathepsin S)/Ki(calpain) ratio of ≧100)”. Moreover, the “Sel cat. B: Ki(cathepsin B)/Ki(calpain) ratio” value at cathepsin B is “++ (++ means a Ki(cathepsin B)/Ki(calpain) ratio of ≧30)”. In addition, the “Sel cat. K: Ki(cathepsin K)/Ki(calpain) ratio” value at cathepsin K is listed as “++ (++ means a Ki(cathepsin K)/Ki(calpain) ratio of ≧30)”. At cathepsin L, the “Sel cat. L: Ki(cathepsin L)/Ki(calpain) ratio” value is reported as “++ (++ means a Ki(cathepsin L)/Ki(calpain) ratio of ≧50)”.

Turning to `NC(=O)C(=O)C(Cc1ccccc1)NC(=O)c1cccnc1-n1cc2c(n1)-c1ccccc1S(=O)(=O)C2` (stereo not shown) [Example 174, N-[3-Amino-2,3-dioxo-1-(phenylmethyl)propyl]-2-(5,5-dioxidothiochromeno[4,3-c]pyrazol-2(4H)-yl)pyridine-3-carboxamide], the “Sel cat. S: Ki(cathepsin S)/Ki(calpain) ratio” value on cathepsin S is “++ (++ means a Ki(cathepsin S)/Ki(calpain) ratio of ≧100)”. Moreover, on cathepsin B, the “Sel cat. B: Ki(cathepsin B)/Ki(calpain) ratio” value is on record as “+ (+ means 10≦Ki(cathepsin B)/Ki(calpain)<30)”. The “Sel cat. K: Ki(cathepsin K)/Ki(calpain) ratio” value on cathepsin K is “+ (+ means 10≦Ki(cathepsin K)/Ki(calpain)<30)”. In addition, the “Sel cat. L: Ki(cathepsin L)/Ki(calpain) ratio” value at cathepsin L is listed as “++ (++ means a Ki(cathepsin L)/Ki(calpain) ratio of ≧50)”.

Consider `NC(=O)C(=O)C(Cc1ccccc1)NC(=O)c1cccnc1-n1ccc(-c2cc(Cl)ccc2Cl)n1` (stereo not shown) [Example 112, N-[3-Amino-2,3-dioxo-1-(phenylmethyl)propyl]-2-[3-(2,5-dichlorophenyl)-1H-pyrazol-1-yl]pyridine-3-carboxamide], for which the “Sel cat. S: Ki(cathepsin S)/Ki(calpain) ratio” value at cathepsin S is reported as “++ (++ means a Ki(cathepsin S)/Ki(calpain) ratio of ≧100)”. In addition, the “Sel cat. B: Ki(cathepsin B)/Ki(calpain) ratio” value at cathepsin B was “++ (++ means a Ki(cathepsin B)/Ki(calpain) ratio of ≧30)”. For the same compound, the “Sel cat. K: Ki(cathepsin K)/Ki(calpain) ratio” value on cathepsin K is “++ (++ means a Ki(cathepsin K)/Ki(calpain) ratio of ≧30)”. Besides, the “Sel cat. L: Ki(cathepsin L)/Ki(calpain) ratio” value at cathepsin L is reported as “++ (++ means a Ki(cathepsin L)/Ki(calpain) ratio of ≧50)”.

In the case of `NC(=O)C(=O)C(Cc1ccccc1)NC(=O)c1cccnc1-n1ccc(-c2ccc(F)cc2)n1` (stereo not shown) [Example 38, N-(3-Amino-1-benzyl-2,3-dioxopropyl)-2-[3-(4-fluorophenyl)-1H-pyrazol-1-yl]nicotinamide], the “Sel cat. S: Ki(cathepsin S)/Ki(calpain) ratio” value at cathepsin S is recorded as “++ (++ means a Ki(cathepsin S)/Ki(calpain) ratio of ≧100)”. In addition, the “Sel cat. B: Ki(cathepsin B)/Ki(calpain) ratio” value at cathepsin B is “+ (+ means 10≦Ki(cathepsin B)/Ki(calpain)<30)”. The “Sel cat. K: Ki(cathepsin K)/Ki(calpain) ratio” value on cathepsin K is “+ (+ means 10≦Ki(cathepsin K)/Ki(calpain)<30)”. In addition, the “Sel cat. L: Ki(cathepsin L)/Ki(calpain) ratio” value at cathepsin L is “++ (++ means a Ki(cathepsin L)/Ki(calpain) ratio of ≧50)”.

For `NC(=O)C(=O)C(Cc1ccccc1)NC(=O)c1cccnc1-n1ccc(-c2cccc(N3CCOCC3)c2)n1` (stereo not shown) [Example 58, N-(3-Amino-1-benzyl-2,3-dioxopropyl)-2-[3-(3-morpholin-4-ylphenyl)-1H-pyrazol-1-yl]nicotinamide], the “Sel cat. S: Ki(cathepsin S)/Ki(calpain) ratio” value at cathepsin S is on record as “++ (++ means a Ki(cathepsin S)/Ki(calpain) ratio of ≧100)”. Moreover, on cathepsin B, the “Sel cat. B: Ki(cathepsin B)/Ki(calpain) ratio” value is “+ (+ means 10≦Ki(cathepsin B)/Ki(calpain)<30)”. The “Sel cat. K: Ki(cathepsin K)/Ki(calpain) ratio” value at cathepsin K is recorded as “+ (+ means 10≦Ki(cathepsin K)/Ki(calpain)<30)”. For the same compound, on cathepsin L, the “Sel cat. L: Ki(cathepsin L)/Ki(calpain) ratio” value was “++ (++ means a Ki(cathepsin L)/Ki(calpain) ratio of ≧50)”.

Consider `CS(=O)(=O)Nc1cnc(-n2ccc(-c3ccccc3)n2)c(C(=O)NC(Cc2ccccc2)C(=O)C(N)=O)c1` (stereo not shown) [Example 158, N-[3-Amino-2,3-dioxo-1-(phenylmethyl)propyl]-5-[(methylsulfonyl)amino]-2-(3-phenyl-1H-pyrazol-1-yl)pyridine-3-carboxamide], for which, on cathepsin S, the “Sel cat. S: Ki(cathepsin S)/Ki(calpain) ratio” value was “++ (++ means a Ki(cathepsin S)/Ki(calpain) ratio of ≧100)”. Moreover, the “Sel cat. B: Ki(cathepsin B)/Ki(calpain) ratio” value on cathepsin B is listed as “++ (++ means a Ki(cathepsin B)/Ki(calpain) ratio of ≧30)”. For the same compound, the “Sel cat. K: Ki(cathepsin K)/Ki(calpain) ratio” value on cathepsin K is given as “++ (++ means a Ki(cathepsin K)/Ki(calpain) ratio of ≧30)”. For the same compound, the “Sel cat. L: Ki(cathepsin L)/Ki(calpain) ratio” value on cathepsin L is recorded as “++ (++ means a Ki(cathepsin L)/Ki(calpain) ratio of ≧50)”.

`NC(=O)C(=O)C(Cc1ccc(F)cc1)NC(=O)c1cccnc1-n1ccc(-c2ccc(Cl)cc2Cl)n1` (stereo not shown) [Example 114, N-{-3-Amino-1-[(4-fluorophenyl)methyl]-2,3-dioxopropyl}-2-[3-(2,4-dichlorophenyl)-1H-pyrazol-1-yl]pyridine-3-carboxamide]: the “Sel cat. S: Ki(cathepsin S)/Ki(calpain) ratio” value at cathepsin S is reported as “++ (++ means a Ki(cathepsin S)/Ki(calpain) ratio of ≧100)”. Moreover, at cathepsin B, the “Sel cat. B: Ki(cathepsin B)/Ki(calpain) ratio” value is on record as “++ (++ means a Ki(cathepsin B)/Ki(calpain) ratio of ≧30)”. The “Sel cat. K: Ki(cathepsin K)/Ki(calpain) ratio” value at cathepsin K is “++ (++ means a Ki(cathepsin K)/Ki(calpain) ratio of ≧30)”. For the same compound, the “Sel cat. L: Ki(cathepsin L)/Ki(calpain) ratio” value on cathepsin L is “++ (++ means a Ki(cathepsin L)/Ki(calpain) ratio of ≧50)”.

Turning to `NC(=O)C(=O)C(Cc1ccc(F)cc1)NC(=O)c1cccnc1-n1ccc(-c2ccccc2)n1` (stereo not shown) [Example 123, N-{3-Amino-1-[(4-fluorophenyl)methyl]-2,3-dioxopropyl}-2-(3-phenyl-1H-pyrazol-1-yl)pyridine-3-carboxamide], at cathepsin S, the “Sel cat. S: Ki(cathepsin S)/Ki(calpain) ratio” value is recorded as “++ (++ means a Ki(cathepsin S)/Ki(calpain) ratio of ≧100)”. Also, the “Sel cat. B: Ki(cathepsin B)/Ki(calpain) ratio” value at cathepsin B is listed as “++ (++ means a Ki(cathepsin B)/Ki(calpain) ratio of ≧30)”. For the same compound, the “Sel cat. K: Ki(cathepsin K)/Ki(calpain) ratio” value on cathepsin K was “++ (++ means a Ki(cathepsin K)/Ki(calpain) ratio of ≧30)”. Besides, the “Sel cat. L: Ki(cathepsin L)/Ki(calpain) ratio” value at cathepsin L is “++ (++ means a Ki(cathepsin L)/Ki(calpain) ratio of ≧50)”.

Regarding `NC(=O)C(=O)C(Cc1ccc(OC(F)(F)F)cc1)NC(=O)c1cccnc1-n1ccc(-c2ccccc2)n1` (stereo not shown) [Example 133, N-[3-Amino-2,3-dioxo-1-({4-[(trifluoromethyl)oxy]phenyl}methyl)propyl]-2-(3-phenyl-1H-pyrazol-1-yl)pyridine-3-carboxamide], the “Sel cat. S: Ki(cathepsin S)/Ki(calpain) ratio” value on cathepsin S is “++ (++ means a Ki(cathepsin S)/Ki(calpain) ratio of ≧100)”. Also, the “Sel cat. B: Ki(cathepsin B)/Ki(calpain) ratio” value on cathepsin B was “++ (++ means a Ki(cathepsin B)/Ki(calpain) ratio of ≧30)”. Also, the “Sel cat. K: Ki(cathepsin K)/Ki(calpain) ratio” value on cathepsin K was “++ (++ means a Ki(cathepsin K)/Ki(calpain) ratio of ≧30)”. Moreover, at cathepsin L, the “Sel cat. L: Ki(cathepsin L)/Ki(calpain) ratio” value is reported as “++ (++ means a Ki(cathepsin L)/Ki(calpain) ratio of ≧50)”.
